Results taken from the OPERA property sets (Mansouri et al. 2018).
Where a SMILES comes first, the peptide text is derived from it.

Going from `CC1(C(=O)O)CSC(c2ccc(O)cc2O)=N1` (stereo unspecified) to `COc1ccc(C2=NC(C(=O)O)CS2)c(O)c1` (stereo unspecified), the logP rises from 1.3 to 1.5.

Going from `Fc1cncnc1` to `NS(=O)(=O)c1ncncc1-c1ccccc1`, the logP rises from -0.03 to 0.5.

First: CCOC(=O)Nc1ccc2cc3ccc4c(c3nc2c1)COCN4C(=O)OCC
Second: CNc1ccc2cc3ccc4c(c3nc2c1CO)COCN4S(C)(=O)=O
The logP of the first is higher: 3.12 for the first, 1.2 for the second.

Compared with `CCCCCCN=C=S`, `O=C(CCCN=C=S)c1cccnc1` is lower in logP: 3.98 for the first, 1.79 for the second.

`N#Cc1cccc(Cn2cccn2)c1` and `Nc1cccc(Cn2cnc3ccccc32)c1` are within 0.2 log units of each other in logP: 1.74 for the first, 1.92 for the second.

Going from `Cc1nc2ccccc2c(=O)n1CC(=O)N1CCOCC1` to `CCCc1nc(Nc2ccccc2OC)nc(N2CCOCC2)n1`, the logP rises from 0.36 to 3.59.

Compared with `COc1cc(OC)nc(Oc2cccc(Cl)c2C(=O)O)n1`, `COc1cc(OC)nc(Oc2cccc(Oc3ccccc3)c2C(=O)O)n1` is higher in logP: 2.23 for the first, 3.43 for the second.

First: CN(C)CCOC(=O)c1ccc(C(F)(F)F)cc1
Second: CCCC(=O)OCOC(=O)N(C)N=Nc1ccc(C(=O)OCC)cc1
The logP of the first is lower: 2.88 for the first, 4.51 for the second.

`CCc1ccccc1CNc1[nH]cnc2ncnc1-2` and `CCc1cccc(CNc2[nH]cnc3ncnc2-3)c1` are within 0.2 log units of each other in logP: 2.92 for the first, 2.98 for the second.

First: CC(=NNC(=O)c1ccc(Br)cc1)c1cnccn1
Second: O=C(Nc1ccccc1C(=O)O)c1ccccc1
The logP of the first is lower: 2.9 for the first, 3.54 for the second.

Compared with `Cc1nc2c3c(c(C(=O)O)cn2c1C)CCC(c1ccccc1)O3` (stereo unspecified), `Cc1nc2c3c(c(C(=O)NC4CC4)cn2c1C)CCC(c1ccccc1)O3` (stereo unspecified) is lower in logP: 4.6 for the first, 4 for the second.

First: CON=C(C(=O)NC1C(=O)N2C(C(C)OC(=O)OC(C)C)=CCSC12)c1csc(N)n1 (stereo unspecified)
Second: CON=C(C(=O)NC1C(=O)N2C(C(=O)OCc3oc(=O)oc3C)=CCSC12)c1csc(N)n1 (stereo unspecified)
The logP of the first is higher: 1.37 for the first, 0.17 for the second.

First: COc1ccc(CCNCC(O)CON=C(C2CC2)C2CC2)cc1OC (stereo unspecified)
Second: COCc1[nH]c(-c2ccc(OCC(O)CNCCc3ccc(OC)c(OC)c3)cc2)nc1C (stereo unspecified)
The logP of the first is lower: 2.42 for the first, 2.8 for the second.

`CCC(C)C(N)C(=O)NC(Cc1ccc(O)cc1)C(=O)NC(C(=O)O)C(C)C` (stereo not drawn) (H-Ile-Tyr-Val-OH; configuration not given here) and `CCC(C)C(NC(=O)C(N)Cc1ccccc1)C(=O)NC(C(=O)O)C(C)O` (stereo not drawn) (H-Phe-Ile-Thr-OH; configuration not given here) are within 0.2 log units of each other in logP: -1.77 for the first, -1.95 for the second.

Compared with `O=C(O)CCCCON=C(c1cccc(C(F)(F)F)c1)c1cccnn1`, `FC(F)(F)c1cccc(CNc2[nH]cnc3ncnc2-3)c1` is higher in logP: 2.8 for the first, 3.08 for the second.

First: O=C(O)Cc1c(O)cccc1Nc1c(Cl)cccc1Cl
Second: O=c1cc(-c2ccccc2Cl)oc2ccc(Cl)cc12
The logP of the first is higher: 4.65 for the first, 4.09 for the second.

First: CC(=O)C(=Cc1cc(O)c(O)c([N+](=O)[O-])c1)C(C)=O
Second: O=[N+]([O-])c1cc(F)ccc1O
The logP of the first is lower: 1.21 for the first, 1.88 for the second.

First: OCCCCCCNc1ncnc2c1ncn2C1OC(CO)C(O)C1O (stereo unspecified)
Second: CCCCOCCCNc1ncnc2c1ncn2C1OC(CO)C(O)C1O (stereo unspecified)
The logP of the first is lower: 0.23 for the first, 1.3 for the second.

`CC(N)C(=O)NCC(=O)NC(Cc1ccccc1)C(=O)NC(C(=O)NC(Cc1ccccc1)C(=O)O)C(C)C` (stereo unspecified) (H-AGFVF-OH; configuration not given here) and `CC(C)CC(NC(=O)CNC(=O)C(NC(=O)C(Cc1ccccc1)NC(=O)C(N)C(C)C)C(C)C)C(=O)O` (stereo unspecified) (H-VFVGL-OH; configuration not given here) are within 0.2 log units of each other in logP: -1.1 for the first, -0.97 for the second.

`CNCCC=Cc1cccnc1` and `CC(C)(C)NCC(O)COc1cccc2c1CCN(C=O)C2` (stereo unspecified) are within 0.2 log units of each other in logP: 1.13 for the first, 1.3 for the second.

`Nc1nc(N)c2c(N3CCCCC3)cccc2n1` and `O=C1C=C(N2CCCC2)CN1c1ccc(Cl)cc1` are within 0.2 log units of each other in logP: 2.66 for the first, 2.6 for the second.

First: CC(=O)NC1=C(Cl)C(=O)c2ccccc2C1=O
Second: O=c1cc(-c2ccc(Cl)cc2Cl)oc2ccccc12
The logP of the first is lower: 1.42 for the first, 4.13 for the second.

Compared with `O=C(C=Cc1ccc([N+](=O)[O-])o1)NN=Cc1ccc([N+](=O)[O-])o1`, `CC(C)(C)[N+]([O-])=Cc1ccc([N+](=O)[O-])cc1` is lower in logP: 2.79 for the first, 1.4 for the second.

First: NC(Cc1ccc(O)cc1)C(=O)NC(Cc1ccc(O)cc1)C(=O)O (stereo not drawn) (H-Tyr-Tyr-OH; configuration not given here)
Second: CC(C)CC(NC(=O)C(Cc1ccc(O)cc1)NC(=O)C(N)Cc1ccc(O)cc1)C(=O)O (stereo not drawn) (H-Tyr-Tyr-Leu-OH; configuration not given here)
The logP of the first is lower: -1.87 for the first, -1.38 for the second.

Going from `Cc1c[nH]c(Cc2ccc(OCC(O)CNC(C)(C)C)cc2)n1` (stereo unspecified) to `CC(C)(C)OC(=O)NC(Cc1c[nH]c2ccccc12)C(=O)O` (stereo unspecified), the logP rises from 1.4 to 2.65.

First: O=Cc1ccc(Cl)cc1O
Second: O=c1cc(-c2ccc(Cl)cc2)oc2ccccc12
The logP of the first is lower: 2.49 for the first, 3.89 for the second.

First: O=CC(=C(Cl)C(=O)O)C(Cl)Cl
Second: CC=C(C)C(=O)OC1CC(C)CCC1C(C)C (stereo unspecified)
The logP of the first is lower: 1.13 for the first, 6.2 for the second.

`CCCOc1cccc(-c2c[nH]c(SCCc3c[nH]cn3)n2)c1` and `CCCc1cccc(CNc2[nH]cnc3ncnc2-3)c1` are within 0.2 log units of each other in logP: 3.7 for the first, 3.53 for the second.

Going from `N#CNc1ccccc1` to `CC(Nc1[nH]cnc2ncnc1-2)c1ccccc1` (stereo unspecified), the logP rises from 1.87 to 2.58.

Compared with `Cc1coc2nc3oc(=O)ccc3c(C)c12`, `Cc1c(C)c2ccc3occ(C)c3c2oc1=O` is higher in logP: 1.71 for the first, 3.34 for the second.

Compared with `C#CCCCCl`, `CCOC1N=C(c2ccccc2)c2cc(Cl)ccc2N(CCCl)C1=O` (stereo unspecified) is higher in logP: 1.85 for the first, 3.95 for the second.

First: CN1CCCNCC1
Second: O=c1c2c(nc3n1CCC3)CCC2
The logP of the first is lower: -0.4 for the first, 0.22 for the second.

Compared with `Clc1ccc(N2CCN(CCn3nnc4ccccc43)CC2)cc1`, `Clc1ccc(/C=N/OCCc2nc(-c3ccccc3)n[nH]2)cc1` is lower in logP: 3.4 for the first, 2.83 for the second.

Going from `CC(C)C(=O)OCC1OC(n2cc(I)c(=O)[nH]c2=O)CC1O` (stereo unspecified) to `COC(=O)C(C)NP(=O)(OCC1C=CC(n2cc(C)c(=O)[nH]c2=O)O1)Oc1cccc(C(F)(F)F)c1` (stereo unspecified), the logP rises from 0.84 to 1.57.

Compared with `CCOc1ccccc1NC(=O)OC1C(CN(CC)CC)C2CCC1(C)C2(C)C` (stereo unspecified), `CCOc1cccc(NC(=O)OCCN2CCCCC2)c1` is lower in logP: 5.8 for the first, 3.77 for the second.

`CC(=O)N(O)CCCCCNC(=O)CCC(=O)N(O)CCCCCNC(=O)CCC(=O)N(O)CCCCCNC=O` and `CC(=O)N(O)CCCCCNC(=O)CCC(=O)N(O)CCCCCNC(=O)CCC(=O)N(O)CCCCCNC(=O)CCC(=O)O` are within 0.2 log units of each other in logP: -0.33 for the first, -0.51 for the second.

`Cc1coc2cc3oc(=O)cc(C)c3cc12` and `Cc1cc2c(C)c3ccc(=O)oc3cc2o1` are within 0.2 log units of each other in logP: 2.76 for the first, 2.84 for the second.

Compared with `CC(C)(C)c1ccc(C(O)CCCN2CCC(C(O)c3ccccc3)CC2)cc1` (stereo unspecified), `NC(Cc1ccc(O)cc1)C(=O)N1CCCC1C(=O)NCC(=O)NC(Cc1c[nH]c2ccccc12)C(=O)O` (stereo unspecified) (H-YPGW-OH; configuration not given here) is lower in logP: 4.06 for the first, -1.25 for the second.

Compared with `CCOP(=O)(OCC)C(C)(C)[N+]([O-])=Cc1ccc([N+](=O)[O-])cc1`, `CCNc1ccc(NC(=O)N(C)OC)cc1` is lower in logP: 1.43 for the first, 0.83 for the second.

Going from `CC(C)CC(N)C(=O)NC(CC(C)C)C(=O)N1CCCC1C(=O)O` (stereo not drawn) (H-Leu-Leu-Pro-OH; configuration not given here) to `CC(C)CC(NC(=O)C(CC(C)C)NC(=O)CNC(=O)C(N)Cc1c[nH]c2ccccc12)C(=O)O` (stereo unspecified) (H-WGLL-OH; configuration not given here), the logP rises from -1.58 to 0.06.

Going from `CCOC(=O)C1=C(C)NC(C)=C(C(=O)OC)C1C` (stereo unspecified) to `CCOC(=O)C1=C(C)NC(C)=C(C(=O)OC(C)C)C1c1cccc2c1OCO2` (stereo unspecified), the logP rises from 3.27 to 4.71.

First: OCC1OC(n2cnc3c(Nc4ccccc4)ncnc32)C(O)C1O (stereo unspecified)
Second: CCCNc1ncnc2c1ncn2C1OC(CO)C(O)C1O (stereo unspecified)
The logP of the first is higher: 1.28 for the first, 0.54 for the second.

Going from `NC1=NC(C2OCCc3ccccc32)CS1` (stereo unspecified) to `CCn1ccnc1CC1COc2ccccc2O1` (stereo unspecified), the logP rises from 1.79 to 2.31.

First: CCCC1C(=O)N(CCN(C)C)c2cccc(C(F)(F)F)c2CC1c1ccc(OC)cc1 (stereo unspecified)
Second: COc1ccc(C2Cc3cc(OC(F)F)ccc3N(CCN(C)C)C(=O)C2OC(C)=O)cc1 (stereo unspecified)
The logP of the first is higher: 6.9 for the first, 3.8 for the second.

Compared with `Cc1[nH]cnc1CSCCNC1=C([N+](=O)[O-])CCN1`, `CC(CO)CCNc1ncnc2nc[nH]c12` (stereo unspecified) is higher in logP: -0.87 for the first, 1.16 for the second.

Going from `Nc1ccn([C@H]2CS[C@@H](CO)O2)c(=O)n1` to `Cc1cccn2c1nc1ccc(N)nc12`, the logP rises from -0.93 to 1.75.

First: COc1cc(OC)c(Cl)cc1N
Second: CCN1CCCC1CNC(=O)c1c(OC)ccc(OC)c1O (stereo unspecified)
The logP of the first is lower: 1.45 for the first, 2.82 for the second.

Going from `COc1cc2c(c(OC)c1OC)-c1ccc(O)c(=O)cc1C(N)CC2` (stereo unspecified) to `COc1c2c(cc3c1-c1ccc(OC)c(=O)cc1C(NC(C)=O)CC3)OCO2` (stereo unspecified), the logP rises from 0.74 to 1.6.

Compared with `Nc1ccc(CNC(=O)C2CCCN2C(=O)C(Cc2ccc(Cl)c(Cl)c2)NS(=O)(=O)Cc2ccccc2)cn1` (stereo unspecified), `CC(C)CC(NC(=O)C(Cc1c[nH]c2ccccc12)NC(=O)C(N)Cc1c[nH]c2ccccc12)C(=O)O` (stereo not drawn) (H-Trp-Trp-Leu-OH; configuration not given here) is lower in logP: 3.68 for the first, 0.36 for the second.

Compared with `CC(=O)c1c(C)nc2c3c(c(C(=O)N(C)C)cn12)CCC(c1ccccc1)O3` (stereo unspecified), `CNC(=O)Oc1ccc2c(c1)CC(c1ccc(OC)cc1)C(OC(C)=O)C(=O)N2CCN(C)C` (stereo unspecified) is lower in logP: 2.75 for the first, 2.31 for the second.

`CCCN(CCC)C1CCc2c(O)cccc2C1C` (stereo unspecified) and `CCCC(=NOCC)C1=C(O)CC2(CCC(C)CC2)OC1=O` (stereo unspecified) are within 0.2 log units of each other in logP: 4.06 for the first, 4.07 for the second.

Going from `Clc1cc(Cl)c(-c2cc(Cl)cc(Cl)c2Cl)c(Cl)c1` to `Cc1cc(Cl)c(C(C)C)c(Cl)c1Cl`, the logP falls from 6.87 to 6.2.

`CC1CC(=O)NN=C1c1ccc(-n2ccnc2)cc1` (stereo unspecified) and `CCOc1ccc(-n2nnnc2N)cc1` are within 0.2 log units of each other in logP: 1.29 for the first, 1.32 for the second.

First: COC(=O)c1ccc2ccc3cccc4ccc1c2c34
Second: COc1ccc2cc(C(C)C(=O)OCCCCOC(C)=O)ccc2c1 (stereo unspecified)
The logP of the first is higher: 4.73 for the first, 3.3 for the second.

Going from `COC(=O)Cc1ccc(O)cc1` to `C=CCNC(=O)c1[nH]cc(-c2ccc(Cl)cc2)c1N1CCOCC1`, the logP rises from 1.63 to 3.7.

Compared with `CC(C)(O)C1CCC2(C)CCCC(C)(O)C2C1` (stereo unspecified), `CCCCOCCCCCNC(=O)NC12CC3CC(CC(C3)C1)C2` is higher in logP: 3.04 for the first, 5 for the second.

`Clc1cccc(CNc2[nH]cnc3ncnc2-3)c1` and `c1ccc(CCCNc2[nH]cnc3ncnc2-3)cc1` are within 0.2 log units of each other in logP: 2.89 for the first, 2.85 for the second.

`Cc1cc2c(o1)c(C)cc1c(C)cc(=O)oc12` and `COc1c2oc(=O)c(C)cc2cc2c(C)c(C)oc12` are the same in logP: 3.28 for the first, 3.28 for the second.

Compared with `OCCCCCCCCNc1[nH]cnc2ncnc1-2`, `CCNc1nc(N)nc(O)n1` is lower in logP: 2.23 for the first, 1.08 for the second.

Going from `CC1CN(CC2CN=C(N)O2)CC(C)O1` (stereo unspecified) to `Cc1ccccc1Nc1ccncc1S(=O)(=O)NC(=NC#N)NC(C)C`, the logP rises from 0.16 to 1.67.

`CC(C)C1(C)N=C(c2ncc(Br)cc2C(=O)O)NC1=O` (stereo unspecified) showed a logP of 1.19.
